{
  "source": "patent US20260130395A1",
  "about": "“Water Dispersible Botanical Compositions” (Aquila Black Limited, priority 2021, published 2026)",
  "experiment": "Stability of cannabinoid compounds and Vitamin E components in Beverage 1 (AB White) by LCMSMS",
  "assay_type": "physicochemical",
  "conditions": "for Stability of Plant-Derived Cannabinoid Compounds in AB White, 8° C.: AB White stored at 8° C.; for Stability of Plant-Derived Cannabinoid Compounds in AB White, 21-25° C.: AB White stored at 21-25° C.",
  "data": [
    {"smiles": "CCCCCc1cc(O)c2c(c1)OC(C)(CCC=C(C)C)C=C2", "note": "(stereo not drawn) [CBC, cannabichromene]", "values": [
      {"measurement": "Stability of Plant-Derived Cannabinoid Compounds in AB White, 8° C.", "setting": "29 days", "value": 0.321, "unit": "µg/mL"},
      {"measurement": "Stability of Plant-Derived Cannabinoid Compounds in AB White, 8° C.", "setting": "30 days", "value": 0.31, "unit": "µg/mL"},
      {"measurement": "Stability of Plant-Derived Cannabinoid Compounds in AB White, 8° C.", "setting": "60 days", "value": 0.316, "unit": "µg/mL"},
      {"measurement": "Stability of Plant-Derived Cannabinoid Compounds in AB White, 8° C.", "setting": "90 days", "value": 0.318, "unit": "µg/mL"},
      {"measurement": "Stability of Plant-Derived Cannabinoid Compounds in AB White, 8° C.", "setting": "120 days", "value": 0.311, "unit": "µg/mL"},
      {"measurement": "Stability of Plant-Derived Cannabinoid Compounds in AB White, 8° C.", "setting": "150 days", "value": 0.314, "unit": "µg/mL"},
      {"measurement": "Stability of Plant-Derived Cannabinoid Compounds in AB White, 8° C.", "setting": "180 days", "value": 0.319, "unit": "µg/mL"},
      {"measurement": "Stability of Plant-Derived Cannabinoid Compounds in AB White, 8° C.", "setting": "210 days", "value": 0.309, "unit": "µg/mL"},
      {"measurement": "Stability of Plant-Derived Cannabinoid Compounds in AB White, 8° C.", "setting": "240 days", "value": 0.316, "unit": "µg/mL"},
      {"measurement": "Stability of Plant-Derived Cannabinoid Compounds in AB White, 8° C.", "setting": "270 days", "value": 0.316, "unit": "µg/mL"},
      {"measurement": "Stability of Plant-Derived Cannabinoid Compounds in AB White, 8° C.", "setting": "300 days", "value": 0.313, "unit": "µg/mL"},
      {"measurement": "Stability of Plant-Derived Cannabinoid Compounds in AB White, 8° C.", "setting": "330 days", "value": 0.316, "unit": "µg/mL"},
      {"measurement": "Stability of Plant-Derived Cannabinoid Compounds in AB White, 8° C.", "setting": "360 days", "value": 0.306, "unit": "µg/mL"},
      {"measurement": "Stability of Plant-Derived Cannabinoid Compounds in AB White, 8° C.", "setting": "390 days", "value": 0.310, "unit": "µg/mL"},
      {"measurement": "Stability of Plant-Derived Cannabinoid Compounds in AB White, 8° C.", "setting": "420 days", "value": 0.307, "unit": "µg/mL"},
      {"measurement": "Stability of Plant-Derived Cannabinoid Compounds in AB White, 8° C.", "setting": "450 days", "value": 0.312, "unit": "µg/mL"},
      {"measurement": "Stability of Plant-Derived Cannabinoid Compounds in AB White, 8° C.", "setting": "480 days", "value": 0.305, "unit": "µg/mL"},
      {"measurement": "Stability of Plant-Derived Cannabinoid Compounds in AB White, 8° C.", "setting": "510 days", "value": 0.295, "unit": "µg/mL"},
      {"measurement": "Stability of Plant-Derived Cannabinoid Compounds in AB White, 8° C.", "setting": "540 days", "value": 0.299, "unit": "µg/mL"},
      {"measurement": "Stability of Plant-Derived Cannabinoid Compounds in AB White, 8° C.", "setting": "570 days", "value": 0.293, "unit": "µg/mL"},
      {"measurement": "Stability of Plant-Derived Cannabinoid Compounds in AB White, 21-25° C.", "setting": "0 days", "value": 0.320, "unit": "µg/mL"},
      {"measurement": "Stability of Plant-Derived Cannabinoid Compounds in AB White, 21-25° C.", "setting": "1 days", "value": 0.313, "unit": "µg/mL"},
      {"measurement": "Stability of Plant-Derived Cannabinoid Compounds in AB White, 21-25° C.", "setting": "2 days", "value": 0.318, "unit": "µg/mL"},
      {"measurement": "Stability of Plant-Derived Cannabinoid Compounds in AB White, 21-25° C.", "setting": "3 days", "value": 0.311, "unit": "µg/mL"},
      {"measurement": "Stability of Plant-Derived Cannabinoid Compounds in AB White, 21-25° C.", "setting": "5 days", "value": 0.323, "unit": "µg/mL"},
      {"measurement": "Stability of Plant-Derived Cannabinoid Compounds in AB White, 21-25° C.", "setting": "8 days", "value": 0.319, "unit": "µg/mL"},
      {"measurement": "Stability of Plant-Derived Cannabinoid Compounds in AB White, 21-25° C.", "setting": "9 days", "value": 0.307, "unit": "µg/mL"},
      {"measurement": "Stability of Plant-Derived Cannabinoid Compounds in AB White, 21-25° C.", "setting": "10 days", "value": 0.312, "unit": "µg/mL"},
      {"measurement": "Stability of Plant-Derived Cannabinoid Compounds in AB White, 21-25° C.", "setting": "11 days", "value": 0.311, "unit": "µg/mL"},
      {"measurement": "Stability of Plant-Derived Cannabinoid Compounds in AB White, 21-25° C.", "setting": "12 days", "value": 0.316, "unit": "µg/mL"},
      {"measurement": "Stability of Plant-Derived Cannabinoid Compounds in AB White, 21-25° C.", "setting": "15 days", "value": 0.311, "unit": "µg/mL"},
      {"measurement": "Stability of Plant-Derived Cannabinoid Compounds in AB White, 21-25° C.", "setting": "16 days", "value": 0.321, "unit": "µg/mL"},
      {"measurement": "Stability of Plant-Derived Cannabinoid Compounds in AB White, 21-25° C.", "setting": "17 days", "value": 0.323, "unit": "µg/mL"},
      {"measurement": "Stability of Plant-Derived Cannabinoid Compounds in AB White, 21-25° C.", "setting": "18 days", "value": 0.313, "unit": "µg/mL"},
      {"measurement": "Stability of Plant-Derived Cannabinoid Compounds in AB White, 21-25° C.", "setting": "19 days", "value": 0.316, "unit": "µg/mL"},
      {"measurement": "Stability of Plant-Derived Cannabinoid Compounds in AB White, 21-25° C.", "setting": "22 days", "value": 0.322, "unit": "µg/mL"},
      {"measurement": "Stability of Plant-Derived Cannabinoid Compounds in AB White, 21-25° C.", "setting": "23 days", "value": 0.316, "unit": "µg/mL"},
      {"measurement": "Stability of Plant-Derived Cannabinoid Compounds in AB White, 21-25° C.", "setting": "24 days", "value": 0.308, "unit": "µg/mL"},
      {"measurement": "Stability of Plant-Derived Cannabinoid Compounds in AB White, 21-25° C.", "setting": "25 days", "value": 0.310, "unit": "µg/mL"},
      {"measurement": "Stability of Plant-Derived Cannabinoid Compounds in AB White, 21-25° C.", "setting": "26 days", "value": 0.308, "unit": "µg/mL"},
      {"measurement": "Stability of Plant-Derived Cannabinoid Compounds in AB White, 21-25° C.", "setting": "29 days", "value": 0.317, "unit": "µg/mL"},
      {"measurement": "Stability of Plant-Derived Cannabinoid Compounds in AB White, 21-25° C.", "setting": "30 days", "value": 0.317, "unit": "µg/mL"},
      {"measurement": "Stability of Plant-Derived Cannabinoid Compounds in AB White, 21-25° C.", "setting": "60 days", "value": 0.306, "unit": "µg/mL"},
      {"measurement": "Stability of Plant-Derived Cannabinoid Compounds in AB White, 21-25° C.", "setting": "90 days", "value": 0.305, "unit": "µg/mL"},
      {"measurement": "Stability of Plant-Derived Cannabinoid Compounds in AB White, 21-25° C.", "setting": "120 days", "value": 0.318, "unit": "µg/mL"},
      {"measurement": "Stability of Plant-Derived Cannabinoid Compounds in AB White, 21-25° C.", "setting": "150 days", "value": 0.312, "unit": "µg/mL"},
      {"measurement": "Stability of Plant-Derived Cannabinoid Compounds in AB White, 21-25° C.", "setting": "180 days", "value": 0.315, "unit": "µg/mL"},
      {"measurement": "Stability of Plant-Derived Cannabinoid Compounds in AB White, 21-25° C.", "setting": "210 days", "value": 0.307, "unit": "µg/mL"},
      {"measurement": "Stability of Plant-Derived Cannabinoid Compounds in AB White, 21-25° C.", "setting": "240 days", "value": 0.304, "unit": "µg/mL"},
      {"measurement": "Stability of Plant-Derived Cannabinoid Compounds in AB White, 21-25° C.", "setting": "270 days", "value": 0.316, "unit": "µg/mL"},
      {"measurement": "Stability of Plant-Derived Cannabinoid Compounds in AB White, 21-25° C.", "setting": "300 days", "value": 0.312, "unit": "µg/mL"},
      {"measurement": "Stability of Plant-Derived Cannabinoid Compounds in AB White, 21-25° C.", "setting": "330 days", "value": 0.312, "unit": "µg/mL"},
      {"measurement": "Stability of Plant-Derived Cannabinoid Compounds in AB White, 21-25° C.", "setting": "360 days", "value": 0.310, "unit": "µg/mL"},
      {"measurement": "Stability of Plant-Derived Cannabinoid Compounds in AB White, 21-25° C.", "setting": "390 days", "value": 0.303, "unit": "µg/mL"},
      {"measurement": "Stability of Plant-Derived Cannabinoid Compounds in AB White, 21-25° C.", "setting": "420 days", "value": 0.312, "unit": "µg/mL"},
      {"measurement": "Stability of Plant-Derived Cannabinoid Compounds in AB White, 21-25° C.", "setting": "450 days", "value": 0.310, "unit": "µg/mL"},
      {"measurement": "Stability of Plant-Derived Cannabinoid Compounds in AB White, 21-25° C.", "setting": "480 days", "value": 0.294, "unit": "µg/mL"},
      {"measurement": "Stability of Plant-Derived Cannabinoid Compounds in AB White, 21-25° C.", "setting": "510 days", "value": 0.293, "unit": "µg/mL"},
      {"measurement": "Stability of Plant-Derived Cannabinoid Compounds in AB White, 21-25° C.", "setting": "540 days", "value": 0.294, "unit": "µg/mL"},
      {"measurement": "Stability of Plant-Derived Cannabinoid Compounds in AB White, 21-25° C.", "setting": "570 days", "value": 0.295, "unit": "µg/mL"}
    ]}
  ]
}
